Measured values published in patent US6492365B1, “Microsomal triglyceride transfer protein” (Bristol-Myers Squibb Company, priority 1992, dated 2002).
Structures can show the parent of a compound that is named as a salt.

Target: T1, bovine MTP (Bos taurus, UniProt P55156)
T1 construct: with about 50-200 ng purified MTP in the well of a 96-well plate; from tissue; host or cells: bovine liver
T1 sequence (P55156 12-887): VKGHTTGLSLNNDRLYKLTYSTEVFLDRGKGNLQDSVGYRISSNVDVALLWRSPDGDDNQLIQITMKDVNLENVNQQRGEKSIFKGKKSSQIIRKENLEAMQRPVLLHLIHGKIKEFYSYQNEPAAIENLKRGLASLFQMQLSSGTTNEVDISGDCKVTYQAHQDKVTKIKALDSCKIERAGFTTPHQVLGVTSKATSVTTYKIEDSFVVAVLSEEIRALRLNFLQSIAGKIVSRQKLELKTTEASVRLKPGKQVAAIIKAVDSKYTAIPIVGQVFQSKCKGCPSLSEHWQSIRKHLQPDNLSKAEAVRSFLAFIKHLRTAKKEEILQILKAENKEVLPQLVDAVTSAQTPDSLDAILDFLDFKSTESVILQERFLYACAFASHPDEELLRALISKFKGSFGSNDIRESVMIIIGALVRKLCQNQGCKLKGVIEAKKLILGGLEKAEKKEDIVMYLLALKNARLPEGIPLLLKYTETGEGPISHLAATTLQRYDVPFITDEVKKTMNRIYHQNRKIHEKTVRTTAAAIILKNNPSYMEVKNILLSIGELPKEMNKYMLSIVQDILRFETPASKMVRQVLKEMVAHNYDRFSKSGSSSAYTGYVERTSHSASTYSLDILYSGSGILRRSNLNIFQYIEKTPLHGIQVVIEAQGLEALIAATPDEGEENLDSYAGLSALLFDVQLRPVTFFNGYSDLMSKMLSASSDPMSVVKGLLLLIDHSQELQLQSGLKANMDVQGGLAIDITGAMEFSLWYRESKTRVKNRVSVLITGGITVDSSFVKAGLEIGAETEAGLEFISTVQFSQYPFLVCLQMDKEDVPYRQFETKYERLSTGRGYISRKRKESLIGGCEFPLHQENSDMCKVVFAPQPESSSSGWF
T1 sequence (P05307 21-510 partner): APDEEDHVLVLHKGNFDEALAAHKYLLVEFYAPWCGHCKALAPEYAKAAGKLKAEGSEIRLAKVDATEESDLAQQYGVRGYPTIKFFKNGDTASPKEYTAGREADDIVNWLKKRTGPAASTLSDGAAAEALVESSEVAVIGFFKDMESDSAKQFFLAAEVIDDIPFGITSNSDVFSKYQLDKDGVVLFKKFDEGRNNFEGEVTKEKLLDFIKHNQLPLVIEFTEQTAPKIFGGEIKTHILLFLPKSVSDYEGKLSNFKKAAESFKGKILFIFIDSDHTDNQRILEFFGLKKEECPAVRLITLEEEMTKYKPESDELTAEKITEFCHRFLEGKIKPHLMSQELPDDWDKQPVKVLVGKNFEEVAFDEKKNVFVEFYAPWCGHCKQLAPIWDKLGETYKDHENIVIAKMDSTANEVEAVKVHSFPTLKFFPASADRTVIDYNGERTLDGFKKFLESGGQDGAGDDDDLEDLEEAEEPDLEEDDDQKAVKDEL
Test: MTP-catalyzed transport of radiolabeled TG from donor SUV to acceptor SUV
Format: biochemical
Settings: for IC50: 30 minutes at 37° C., read-out: IC50 for inhibition of MTP-catalyzed TG transport from donor SUV to acceptor SUV
Procedure: (§1) Compound A was dissolved in DMSO and then diluted into 15/40 buffer. Aliquots were added to a lipid transfer assay to bring the compound to the indicated final concentrations. DMSO concentration in the assay never exceeded 2 μL/600 μL, a concentration that was independently determined to have minimal effect on the assay. MTP-catalyzed lipid transport was measured for 30 minutes at 37° C. TG transfer was calculated and compared to a control assay without inhibitor.
as §1, with “Compound B” for “Compound A”
TG transfer activity was measured as the protein-stimulated rate of TG transfer from donor SUV to acceptor SUV. To prepare donor and acceptor vesicles, the appropriate lipids in chloroform were mixed in a 16×125 mm borosilicate glass screw cap tube (Fisher Scientific Co., Pittsburg, Pa., Cat. no. 14-933-1A) and then dried under a stream of nitrogen. Two mL 15/40 buffer (15 mM Tris, pH 7.4, 40 mM sodium chloride, 1 mM EDTA, and 0.02% NaN3) were added to the dried lipids (or 100 μL per assay, which ever is the least volume), a stream of nitrogen was blown over the buffer, then the cap was quickly screwed on to trap a nitrogen atmosphere over the lipid suspension. […]
The ^14C-TG and ^3H-PC remaining in the supernatant were quantitated by scintillation counting. TG transfer was calculated by comparing the ratio of ^14C-TG (transferred from the donor membranes to the acceptor membranes) to ^3H-PC (a marker of acceptor vesicle recovery) present in the supernatant following a transfer reaction to the ratio of total donor ^14C-TG to acceptor [^3H]PC in the assay before the transfer reaction. The percentage of ^14C-TG transfer was calculated as follows: [formula] […]

Row | IC50 | decrease of TG transfer (at concentrations that inhibited approximately 40% of PC transfer) | Compound
1 | ~1 µM | more than 80% | O=C1c2ccccc2CN1C1CCN(CCC(c2ccccc2)c2ccccc2)CC1 [compound A, 2-[1-(3,3-diphenylpropyl)-4-piperdinyl]-2,3-dihydro-3-oxo-1H-isoindole hydrochloride]
2 | 4 to 6 µM |  | COc1ccccc1N1CCN(CC2CC(=O)c3ccc(F)cc3C2)CC1 (stereo not drawn) [compound B, 1-[3-(6-fluoro-1-tetralanyl)methyl]-4-O-methoxyphenyl piperazine]
